Tests used:
[1] = tested on: HT29; test: panel of 60 human tumor cell lines, growth inhibition (Colon Cancer); conditions: for Percent Growth: HT29
[2] = tested on: SR; test: panel of 60 human tumor cell lines, growth inhibition (Leukemia)
[3] = tested on: A549/ATCC; test: panel of 60 human tumor cell lines, growth inhibition (Non-Small Cell Lung Cancer); conditions: for Percent Growth: A549/ATCC
[4] = tested on: UACC-62; test: panel of 60 human tumor cell lines, growth inhibition (Melanoma)
[5] = tested on: TK-10; test: panel of 60 human tumor cell lines, growth inhibition (Renal Cancer); conditions: for GI50: TK-10, TK-10; for Percent Growth: TK-10
[6] = tested on: M14; test: panel of 60 human tumor cell lines, growth inhibition (Melanoma)
[7] = tested on: UACC-257; test: as above
[8] = tested on: NCI-H23; test: panel of 60 human tumor cell lines, growth inhibition (Non-Small Cell Lung Cancer)
[9] = tested on: MDA-MB-468; test: panel of 60 human tumor cell lines, growth inhibition (Breast Cancer)
[10] = tested on: NCI-H322M; test: panel of 60 human tumor cell lines, growth inhibition (Non-Small Cell Lung Cancer)
[11] = tested on: U251; test: panel of 60 human tumor cell lines, growth inhibition (CNS Cancer); conditions: for Percent Growth: U251
[12] = tested on: PC-3; test: panel of 60 human tumor cell lines, growth inhibition (Prostate Cancer)
[13] = tested on: SNB-75; test: panel of 60 human tumor cell lines, growth inhibition (CNS Cancer)
[14] = tested on: SK-MEL-28; test: panel of 60 human tumor cell lines, growth inhibition (Melanoma)
[15] = tested on: SNB-19; test: panel of 60 human tumor cell lines, growth inhibition (CNS Cancer)
[16] = tested on: A498; test: panel of 60 human tumor cell lines, growth inhibition (Renal Cancer)

C=C1C(=O)O[C@H]2[C@H]1CC/C(COC(=O)NCCc1ccccn1)=C\CC[C@@]1(C)O[C@@H]21 [JVM 61, ((1aR,7aS,10aS,10bS,E)-1a-methyl-8-methylene-9-oxo-1a,2,3,6,7,7a,8,9,10a,10b-decahydrooxireno[2′,3′:9,10]cyclodeca[1,2-b]furan-5-yl)methyl-(2-(pyridin-2-yl)ethyl)carbamate]
Percent Growth ([1]; Log10 Concentration −4.0): −78% | Percent Growth ([1]; Log10 Concentration −5.0): 24% | Percent Growth ([1]; Log10 Concentration −6.0): 110% | Percent Growth ([1]; Log10 Concentration −7.0): 106% | Percent Growth ([1]; Log10 Concentration −8.0): 104% | GI50 ([1]; Homo sapiens, HT-29): 4.69 µM | CC50 ([1]; Homo sapiens, HT-29, read-out: LC50): 53.1 µM | IC (TGI) ([1]; Homo sapiens, HT-29, read-out: TGI): 17.2 µM | GI50 ([2]; Homo sapiens): 4.1 µM | CC50 ([2]; Homo sapiens, read-out: LC50): > 100 µM | IC (TGI) ([2]; Homo sapiens, read-out: TGI): 24.6 µM | Percent Growth ([2]; Log10 Concentration −4.0): −34% | Percent Growth ([2]; Log10 Concentration −5.0): 22% | Percent Growth ([2]; Log10 Concentration −6.0): 95% | Percent Growth ([2]; Log10 Concentration −7.0): 100% | Percent Growth ([2]; Log10 Concentration −8.0): 99% | Percent Growth ([3]; Log10 Concentration −4.0): −54% | Percent Growth ([3]; Log10 Concentration −5.0): 64% | Percent Growth ([3]; Log10 Concentration −6.0): 6.7% | Percent Growth ([3]; Log10 Concentration −8.0): 95% | GI50 ([3]; Homo sapiens, A549): 13.1 µM | CC50 ([3]; Homo sapiens, A549, read-out: LC50): 92 µM | IC (TGI) ([3]; Homo sapiens, A549, read-out: TGI): 34.7 µM | GI50 ([4]; Homo sapiens, UACC-62): 6.29 µM | CC50 ([4]; Homo sapiens, UACC-62, read-out: LC50): 49 µM | IC (TGI) ([4]; Homo sapiens, UACC-62, read-out: TGI): 20.3 µM | Percent Growth ([4]; UACC-62, Log10 Concentration −4.0): −90% | Percent Growth ([4]; UACC-62, Log10 Concentration −5.0): 40% | Percent Growth ([4]; UACC-62, Log10 Concentration −6.0): 89% | Percent Growth ([4]; UACC-62, Log10 Concentration −7.0): 92% | Percent Growth ([4]; UACC-62, Log10 Concentration −8.0): 100% | GI50 ([5]; Homo sapiens): 3.13 µM | GI50 ([5]; Homo sapiens, 5-dose assay): 3.78 µM | CC50 ([5]; Homo sapiens, TK-10, read-out: LC50): 37.5 µM | IC (TGI) ([5]; Homo sapiens, TK-10, read-out: TGI): 12.9 µM | Percent Growth ([5]; Log10 Concentration −4.0): −96% | Percent Growth ([5]; Log10 Concentration −5.0): 12% | Percent Growth ([5]; Log10 Concentration −6.0): 102% | Percent Growth ([5]; Log10 Concentration −7.0): 104% | Percent Growth ([5]; Log10 Concentration −8.0): 101% | GI50 ([6]; Homo sapiens, M14): 5.58 µM | CC50 ([6]; Homo sapiens, M14, read-out: LC50): 66.7 µM | IC (TGI) ([6]; Homo sapiens, M14, read-out: TGI): 21.6 µM | Percent Growth ([6]; M14, Log10 Concentration −4.0): −68% | Percent Growth ([6]; M14, Log10 Concentration −5.0): 34% | Percent Growth ([6]; M14, Log10 Concentration −6.0): 97% | Percent Growth ([6]; M14, Log10 Concentration −7.0): 102% | Percent Growth ([6]; M14, Log10 Concentration −8.0): 100% | GI50 ([7]; Homo sapiens, UACC-257): 4.59 µM | CC50 ([7]; Homo sapiens, UACC-257, read-out: LC50): 53.7 µM | TGI ([7]; UACC-257): 1.95E−5 | Percent Growth ([7]; UACC-257, Log10 Concentration −4.0): −81% | Percent Growth ([7]; UACC-257, Log10 Concentration −5.0): 33% | Percent Growth ([7]; UACC-257, Log10 Concentration −6.0): 83% | Percent Growth ([7]; UACC-257, Log10 Concentration −7.0): 92% | Percent Growth ([7]; UACC-257, Log10 Concentration −8.0): 97% | GI50 ([8]; Homo sapiens, NCI-H23): 11.3 µM | CC50 ([8]; Homo sapiens, NCI-H23, read-out: LC50): 78.8 µM | IC (TGI) ([8]; Homo sapiens, NCI-H23, read-out: TGI): 29.9 µM | Percent Growth ([8]; NCI-H23, Log10 Concentration −4.0): −62% | Percent Growth ([8]; NCI-H23, Log10 Concentration −5.0): 56% | Percent Growth ([8]; NCI-H23, Log10 Concentration −6.0): 100% | Percent Growth ([8]; NCI-H23, Log10 Concentration −7.0): 101% | Percent Growth ([8]; NCI-H23, Log10 Concentration −8.0): 104% | GI50 ([9]; Homo sapiens, MDA-MB-468): 3.22 µM | CC50 ([9]; Homo sapiens, MDA-MB-468, read-out: LC50): 64.5 µM | IC (TGI) ([9]; Homo sapiens, MDA-MB-468, read-out: TGI): 16.4 µM | Percent Growth ([9]; MDA-MB-468, Log10 Concentration −4.0): −66% | Percent Growth ([9]; MDA-MB-468, Log10 Concentration −5.0): 18% | Percent Growth ([9]; MDA-MB-468, Log10 Concentration −6.0): 83% | Percent Growth ([9]; MDA-MB-468, Log10 Concentration −7.0): 89% | Percent Growth ([9]; MDA-MB-468, Log10 Concentration −8.0): 95% | GI50 ([10]; Homo sapiens): 22.5 µM | CC50 ([10]; Homo sapiens, read-out: LC50): > 100 µM | IC (TGI) ([10]; Homo sapiens, read-out: TGI): 63.4 µM | Percent Growth ([10]; Log10 Concentration −4.0): −18% | Percent Growth ([10]; Log10 Concentration −5.0): 87% | Percent Growth ([10]; Log10 Concentration −6.0): 105% | Percent Growth ([10]; Log10 Concentration −7.0): 103% | Percent Growth ([10]; Log10 Concentration −8.0): 106% | GI50 ([11]; Homo sapiens, U-251): 12.5 µM | CC50 ([11]; Homo sapiens, U-251, read-out: LC50): 55.6 µM | IC (TGI) ([11]; Homo sapiens, U-251, read-out: TGI): 25.4 µM | Percent Growth ([11]; Log10 Concentration −4.0): −89% | Percent Growth ([11]; Log10 Concentration −5.0): 65% | Percent Growth ([11]; Log10 Concentration −6.0): 93% | Percent Growth ([11]; Log10 Concentration −7.0): 91% | Percent Growth ([11]; Log10 Concentration −8.0): 97% | GI50 ([12]; Homo sapiens, PC-3): 15.6 µM | CC50 ([12]; Homo sapiens, PC-3, read-out: LC50): 76.8 µM | IC (TGI) ([12]; Homo sapiens, PC-3, read-out: TGI): 35.7 µM | Percent Growth ([12]; PC-3, Log10 Concentration −4.0): −67% | Percent Growth ([12]; PC-3, Log10 Concentration −5.0): 83% | Percent Growth ([12]; PC-3, Log10 Concentration −6.0): 97% | Percent Growth ([12]; PC-3, Log10 Concentration −7.0): 95% | Percent Growth ([12]; PC-3, Log10 Concentration −8.0): 98% | GI50 ([13]; Homo sapiens, SNB-75): 3.78 µM | CC50 ([13]; Homo sapiens, SNB-75, read-out: LC50): 48.4 µM | IC (TGI) ([13]; Homo sapiens, SNB-75, read-out: TGI): 18.6 µM | Percent Growth ([13]; SNB-75, Log10 Concentration −4.0): −88% | Percent Growth ([13]; SNB-75, Log10 Concentration −5.0): 32% | Percent Growth ([13]; SNB-75, Log10 Concentration −6.0): 74% | Percent Growth ([13]; SNB-75, Log10 Concentration −7.0): 76% | Percent Growth ([13]; SNB-75, Log10 Concentration −8.0): 81% | GI50 ([14]; Homo sapiens, SK-MEL-28): 5.25 µM | CC50 ([14]; Homo sapiens, SK-MEL-28, read-out: LC50): 45.5 µM | IC (TGI) ([14]; Homo sapiens, SK-MEL-28, read-out: TGI): 18.1 µM | Percent Growth ([14]; SK-MEL-28, Log10 Concentration −4.0): −93% | Percent Growth ([14]; SK-MEL-28, Log10 Concentration −5.0): 32% | Percent Growth ([14]; SK-MEL-28, Log10 Concentration −6.0): 96% | Percent Growth ([14]; SK-MEL-28, Log10 Concentration −7.0): 96% | Percent Growth ([14]; SK-MEL-28, Log10 Concentration −8.0): 104% | GI50 ([15]; Homo sapiens, SNB-19): 27.7 µM | CC50 ([15]; Homo sapiens, SNB-19, read-out: LC50): > 100 µM | IC (TGI) ([15]; Homo sapiens, SNB-19, read-out: TGI): 160 µM | Percent Growth ([15]; SNB-19, Log10 Concentration −4.0): 3% | Percent Growth ([15]; SNB-19, Log10 Concentration −5.0): 88% | Percent Growth ([15]; SNB-19, Log10 Concentration −6.0): 94% | Percent Growth ([15]; SNB-19, Log10 Concentration −7.0): 93% | Percent Growth ([15]; SNB-19, Log10 Concentration −8.0): 97% | Percent Growth ([16]; A498, Log10 Concentration −4.0): −97% | Percent Growth ([16]; A498, Log10 Concentration −5.0): 55% | Percent Growth ([16]; A498, Log10 Concentration −6.0): 87% | Percent Growth ([16]; A498, Log10 Concentration −8.0): 87% | GI50 ([16]; Homo sapiens, A498): 16.8 µM | CC50 ([16]; Homo sapiens, A498, read-out: LC50): 49.1 µM | IC (TGI) ([16]; Homo sapiens, A498, read-out: TGI): 25.1 µM

Source: patent publication US9469650B2, “Melampomagnolide B derivatives” (BOARD OF TRUSTEES OF THE UNIVERSITY OF ARKANSAS, priority 2013, dated 2016)
